Here are results for one molecule from US9427400B2, “Platinum-catalyzed intravaginal rings” (International Partnership for Microbicides, priority 2013, dated 2016).

A short description of series [1]: Solubility profile of dapivirine. It is filed as physicochemical. Particulars: for solubility: read-out: Solubility Profile (Low Solubility). As to the method:
As used herein, the term “dapivirine” refers to (4-[[4-[(2,4,6-trimethylphenyl)amino]-2-pyrimidinyl]amino]benzonitrile), a non-nucleoside reverse transcriptase inhibitor. Dapivirine is useful in the prevention and/or treatment of retroviral infection, such as HIV-1 infection. It is a crystalline compound that is white to slightly beige in color, has a melting point of about 220° C. and is virtually insoluble in water. More specifically, the solubility of dapivirine is less than 0.001 mg/gm of water (i.e., less than 1 μg/ml of water). The intravaginal rings of the instant invention may use micronized dapivirine.

Series [2] deals with wild-type HIV-1 strains and HIV-1 strains harboring different resistance-inducing mutations. As to conditions: wild-type and resistance-mutant strains; cited from earlier work.
Series [3] is described as follows: Log P (n-octanol and buffer). Format: physicochemical. Particulars: at pH 9.0.

Values after ≈ are worked out from the molar mass of the structure shown. Where two headings read alike, the source gives them in different places. A value given as a limit tells only on which side of the number the result lay.

Usually solubility stands for the concentration that dissolves in the medium under given conditions. Usually logP stands for a log measure of how a compound divides between an organic and an aqueous phase. Low values mean lower lipophilicity, high ones higher lipophilicity. Turning to `Cc1cc(C)c(Nc2ccnc(Nc3ccc(C#N)cc3)n2)c(C)c1` [dapivirine, 4-[[4-[(2,4,6-trimethylphenyl)amino]-2-pyrimidinyl]amino]benzonitrile], the solubility in series [1] (0.1N HCl, simulated gastric fluid) is 280 µg/mL (≈ 850 µM); in series [1] (water) it was over 1 µg/mL. Also, the “Solubility Profile (Low Solubility)” value is given as “PEG 400 = 47.4 mg/g” in series [1] (PEG 400) and “Propylene Glycol = 2.69 mg/g” in series [1] (Propylene Glycol). In series [2], the “activity against HIV-1 strains” value is “potent activity”. This molecule also had a logP in series [3] of 5.27.
